In ChEMBL document CHEMBL1201862, “PubChem BioAssay data set” (2004):
Calls of active or inactive are those of the source.

How the values were obtained:
[1] = biological target: Heat shock protein HSP 90-alpha (Homo sapiens, UniProt P07900); test: Luminescence-based dose response biochemical high throughput screening assay for inhibitors of the Heat Shock Protein 90 (HSP90). [Related pubchem assays: 1831 (Summary AID.), 1846 (Confirmation screen.), 1789 (Primary screen.)]
[2] = biological target: Dual specificity tyrosine-phosphorylation-regulated kinase 1A (Rattus norvegicus, UniProt Q63470); assay type: biochemical, Homo sapiens
[3] = Luminescent dose response cell-based high throughput screening assay for inhibitors of the Janus kinase 2 mutant JAK2V617F. [Related pubchem assays: 1446 (Primary screen.), 1521 (Confirmation assay.), 1486 (Counter screen.)]; assay type: functional
Cytochrome P450 2C19 = Cytochrome P450 2C19 (Homo sapiens, UniProt P33261); test: Cytochrome panel assay with activity outcomes. Panel member name: p450-cyp2c19 Compounds with AC50 equal or less than 10 uM are considered active; assay type: functional; conditions: read-out: AC50
[4] = biological target: 5-hydroxytryptamine receptor 1A (Homo sapiens, UniProt P08908); assay type: functional
Estrogen receptor = biological target: T1, Estrogen receptor (Homo sapiens, UniProt P03372);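 further: potency for inhibiting coactivator peptide recruitment to the receptor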
T1 sequence (P03372 whole entry): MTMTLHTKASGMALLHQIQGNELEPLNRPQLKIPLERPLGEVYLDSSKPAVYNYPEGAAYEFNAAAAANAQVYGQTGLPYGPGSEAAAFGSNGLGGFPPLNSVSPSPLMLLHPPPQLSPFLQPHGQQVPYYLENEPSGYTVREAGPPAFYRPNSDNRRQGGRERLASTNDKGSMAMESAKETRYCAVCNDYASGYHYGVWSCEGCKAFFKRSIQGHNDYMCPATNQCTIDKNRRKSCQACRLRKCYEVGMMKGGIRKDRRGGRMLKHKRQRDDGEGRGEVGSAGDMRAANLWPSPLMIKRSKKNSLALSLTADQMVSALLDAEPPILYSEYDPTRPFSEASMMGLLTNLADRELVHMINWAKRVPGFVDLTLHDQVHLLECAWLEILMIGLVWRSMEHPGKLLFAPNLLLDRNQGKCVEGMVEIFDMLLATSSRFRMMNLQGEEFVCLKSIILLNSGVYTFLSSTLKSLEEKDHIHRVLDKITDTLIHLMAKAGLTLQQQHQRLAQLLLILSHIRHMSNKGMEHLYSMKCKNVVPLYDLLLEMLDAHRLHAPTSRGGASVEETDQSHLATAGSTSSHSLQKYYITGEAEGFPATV

[5] = biological target: T2, RNA-binding protein pos-1 (Caenorhabditis elegans, UniProt G5EF15); test: disruptors of C. elegans POS-1 RNA interaction – biochemical, fluorescence polarization, dose response (AID 1964);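 further: purified POS-1 fused to maltose binding protein made in E. coli; potency of compounds blocking POS-1 binding to fluorescent RNA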
T2 sequence (G5EF15 whole entry): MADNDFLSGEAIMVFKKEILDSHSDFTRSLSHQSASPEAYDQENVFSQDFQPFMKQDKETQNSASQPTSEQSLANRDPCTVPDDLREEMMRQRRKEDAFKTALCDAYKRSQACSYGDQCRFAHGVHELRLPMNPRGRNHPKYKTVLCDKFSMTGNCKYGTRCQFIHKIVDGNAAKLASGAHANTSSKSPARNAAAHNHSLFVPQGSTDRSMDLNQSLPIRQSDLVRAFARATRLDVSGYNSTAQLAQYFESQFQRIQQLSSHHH

14-3-3 protein gamma = 14-3-3 protein gamma (Homo sapiens, UniProt P61981); test: modulators of 14-3-3 gamma client binding – dose response (AID 711); assay type: functional
Estrogen receptor beta = Estrogen receptor beta (Homo sapiens, UniProt Q92731); test: blockers of SRC-3 recruitment to ERβ – biochemical, ELISA, streptavidin-HRP readout, orthogonal assay, confirmation (AID 1060)
[6] = biological target: T3, Polyadenylate-binding protein 1 (Homo sapiens, UniProt P11940); test: MLLE binding blockers, Cy5 peptide tracer – biochemical, fluorescence polarization, Cy5-PAM2 peptide, secondary, miRNA deadenylation inhibitor project, dose response (AID 602260); assay type: functional; conditions: read-out: IC50_Mean
Aminopeptidase N = biological target: T4, Aminopeptidase N (Plasmodium falciparum FcB1/Columbia, UniProt O96935); test: malaria alanyl aminopeptidase activity blockers – biochemical, fluorogenic H-Leu-NHMec substrate, 1536-well (AID 1445); set-up: species or system Plasmodium falciparum 3D7, 3D7
T4 sequence (O96935 whole entry): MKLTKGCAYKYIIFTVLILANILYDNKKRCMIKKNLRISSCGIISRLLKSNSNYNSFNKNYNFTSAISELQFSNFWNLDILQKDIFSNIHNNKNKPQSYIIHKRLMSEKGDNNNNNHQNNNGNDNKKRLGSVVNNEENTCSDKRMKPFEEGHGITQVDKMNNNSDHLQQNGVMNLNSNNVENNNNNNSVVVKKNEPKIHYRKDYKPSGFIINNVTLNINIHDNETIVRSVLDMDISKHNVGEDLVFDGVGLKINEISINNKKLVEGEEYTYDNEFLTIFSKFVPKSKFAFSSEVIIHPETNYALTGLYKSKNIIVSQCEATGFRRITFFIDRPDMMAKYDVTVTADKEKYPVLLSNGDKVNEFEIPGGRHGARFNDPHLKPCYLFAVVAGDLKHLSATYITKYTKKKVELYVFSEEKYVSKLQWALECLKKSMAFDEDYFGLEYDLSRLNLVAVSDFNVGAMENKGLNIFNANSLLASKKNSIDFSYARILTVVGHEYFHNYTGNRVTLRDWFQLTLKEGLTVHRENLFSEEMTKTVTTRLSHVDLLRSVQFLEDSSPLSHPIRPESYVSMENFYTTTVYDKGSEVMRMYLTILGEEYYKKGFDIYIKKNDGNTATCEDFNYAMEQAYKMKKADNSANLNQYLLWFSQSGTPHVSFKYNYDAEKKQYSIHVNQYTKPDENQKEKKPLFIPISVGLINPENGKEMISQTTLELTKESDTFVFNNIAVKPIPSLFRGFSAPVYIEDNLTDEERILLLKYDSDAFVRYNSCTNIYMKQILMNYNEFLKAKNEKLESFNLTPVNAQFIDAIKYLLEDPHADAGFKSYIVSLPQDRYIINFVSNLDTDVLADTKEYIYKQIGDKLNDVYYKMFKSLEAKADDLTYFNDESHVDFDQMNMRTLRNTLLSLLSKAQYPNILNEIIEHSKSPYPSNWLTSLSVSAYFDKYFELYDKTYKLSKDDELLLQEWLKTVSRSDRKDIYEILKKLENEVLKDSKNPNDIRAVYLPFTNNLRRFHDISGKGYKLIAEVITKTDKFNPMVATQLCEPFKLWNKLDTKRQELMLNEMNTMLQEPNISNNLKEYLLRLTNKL

[7] = biological target: T3, Polyadenylate-binding protein 1; test: MLLE domain peptide-binding blockers, IC50 – biochemical, fluorescence polarization, FITC-PAM2 peptide, dose response (AID 602259); assay type: functional; conditions: read-out: IC50_Mean
[8] = biological target: T5, Zinc finger protein mex-5 (Caenorhabditis elegans, UniProt Q9XUB2); test: potency of MEX-5 RNA-binding blockers – biochemical, C. elegans, fluorescence polarization, dose response (AID 1960)
T5 sequence (Q9XUB2 whole entry): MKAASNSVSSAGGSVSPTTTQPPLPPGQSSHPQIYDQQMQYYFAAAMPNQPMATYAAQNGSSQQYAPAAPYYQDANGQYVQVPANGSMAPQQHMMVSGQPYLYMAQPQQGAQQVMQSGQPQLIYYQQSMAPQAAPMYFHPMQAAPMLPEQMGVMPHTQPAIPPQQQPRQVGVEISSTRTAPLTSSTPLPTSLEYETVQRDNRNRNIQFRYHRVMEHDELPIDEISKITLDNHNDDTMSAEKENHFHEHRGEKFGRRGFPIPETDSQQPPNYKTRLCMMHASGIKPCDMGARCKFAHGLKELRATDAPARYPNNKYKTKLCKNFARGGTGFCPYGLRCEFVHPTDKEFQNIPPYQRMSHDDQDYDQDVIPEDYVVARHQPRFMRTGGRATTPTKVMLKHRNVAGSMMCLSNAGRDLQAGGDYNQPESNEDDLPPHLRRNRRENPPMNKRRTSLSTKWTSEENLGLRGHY

[9] = biological target: Bifunctional protein GlmU (Mycobacterium tuberculosis, UniProt P9WMN3); test: Inhibitors of Mycobacterial Glucosamine-1-phosphate acetyl transferase (GlmU). Secondary screen.; set-up: species or system Mycobacterium tuberculosis H37Rv
[10] = Trypanosoma cruzi growth suppression in host cells – NIH3T3 host cells, beta-gal luminescence, confirmation (AID 2044); assay type: functional, cell-based;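 further: intracellular parasites grown in NIH/3T3 mouse fibroblasts as host cells; luminescent beta-galactosidase reporter signal from transgenic T. cruzi replicating inside host cells; inhibitors lower the luminescence signal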
Protein Tat = biological target: T6, Protein Tat (Human immunodeficiency virus type 1 group M subtype B (isolate HXB2)(HIV-1), UniProt P04608); assay type: functional;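 further: tat binding to TAR RNA read out by fluorescence polarization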
T6 sequence (P04608 whole entry): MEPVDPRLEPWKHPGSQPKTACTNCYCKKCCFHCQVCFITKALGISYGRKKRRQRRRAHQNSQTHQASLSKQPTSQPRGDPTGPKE

[11] = NIH3T3 cell viability loss – ATP luminescence, mouse fibroblasts, counter-screen, dose response (AID 2010); assay type: functional, cell-based;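 further: cells exposed to compound for about 90 hours before reading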
[12] = viability loss in Vero cells – cytotoxicity control for Vif-APOBEC3G degradation inhibitor project, dose response (AID 1117358); assay type: functional; conditions: Vero
[13] = biological target: Peroxisome proliferator-activated receptor gamma/Nuclear receptor corepressor 2 (Homo sapiens, UniProt P37231+Q9Y618); test: Counterscreen for NR2E3 inverse agonists: TR-FRET-based biochemical high throughput dose response assay to identify inverse agonists of the interaction between peroxisome proliferator-activated receptor gamma (PPARg) and nuclear receptor co-repressor 2 (NCOR2).; assay type: functional
[14] = biological target: Photoreceptor-specific nuclear receptor (Homo sapiens, UniProt Q9Y5X4); test: ligands suppressing NR2E3 nuclear receptor activity – biochemical, TR-FRET, dose response (AID 463256); assay type: functional
[15] = biological target: Luciferin 4-monooxygenase (Photinus pyralis, UniProt P08659); test: Counter Screen for Luciferase-based Assay Positives. [Related pubchem assays: 620, 618, 411 ]
HEK293 = test: EBV LMP1 TES2 canonical NF-kB signalling blockers – cell-based, HEK293, luciferase, cherry-pick, dose response (AID 588343); assay type: functional; conditions: Homo sapiens
HT-1080 = test: HT1080 cell viability loss – fluorescence readout (AID 620); assay type: functional, cell-based; conditions: Homo sapiens
[16] = P. falciparum Dd2 growth inhibitors, dose response, SYBR Green, cherry-picked samples (AID 1159567); assay type: functional, cell-based
[17] = Dd2 parasite growth inhibition in erythrocytes – SYBR Green, dry powder samples, set 9, dose response (AID 1159568); assay type: functional, cell-based
[18] = toxicity to human hepatoma HepG2 cells – cell-based, cherry-picked samples, cytotoxicity control, dose response (AID 1159577); assay type: functional
[19] = toxicity to human HepG2 hepatoma cells – cell-based, plate reader, dry powder samples, cytotoxicity control, dose response (AID 1159569); assay type: functional;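 further: inhibitor potency with signal falling toward the positive control level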
[20] = growth inhibition of yeast DHODH-expressing 3D7 parasites – SYBR Green, dry powder samples, dose response (AID 1159570); assay type: functional, cell-based;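 further: parasite growth measured after 72 hours of compound exposure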
[21] = Dd2 malaria parasite growth inhibition potency – SYBR Green, dry powder samples, dose response (AID 1159566); assay type: functional, cell-based;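 further: potency for growth inhibition with lower SYBR green DNA signal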
[22] = growth inhibition of PfATP4-mutant resistant parasites – NITD609-resistant line, SYBR Green, dry powder, dose response (AID 1159571); assay type: functional, cell-based;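 further: parasites synchronized at ring stage by sorbitol before testing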

Sequence of 5-hydroxytryptamine receptor 1A (P08908 whole entry): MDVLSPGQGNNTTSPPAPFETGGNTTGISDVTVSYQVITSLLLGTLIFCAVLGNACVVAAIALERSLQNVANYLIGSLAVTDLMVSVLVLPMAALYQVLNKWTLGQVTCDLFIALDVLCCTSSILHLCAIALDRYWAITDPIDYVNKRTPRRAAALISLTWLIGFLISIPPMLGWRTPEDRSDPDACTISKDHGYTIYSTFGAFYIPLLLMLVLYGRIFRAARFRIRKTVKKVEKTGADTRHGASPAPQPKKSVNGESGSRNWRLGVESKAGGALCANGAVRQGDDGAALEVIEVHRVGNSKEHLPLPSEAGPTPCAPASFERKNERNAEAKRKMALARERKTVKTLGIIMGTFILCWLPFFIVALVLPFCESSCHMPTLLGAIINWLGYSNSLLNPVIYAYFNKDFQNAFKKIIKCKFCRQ
T3 sequence (P11940 whole entry): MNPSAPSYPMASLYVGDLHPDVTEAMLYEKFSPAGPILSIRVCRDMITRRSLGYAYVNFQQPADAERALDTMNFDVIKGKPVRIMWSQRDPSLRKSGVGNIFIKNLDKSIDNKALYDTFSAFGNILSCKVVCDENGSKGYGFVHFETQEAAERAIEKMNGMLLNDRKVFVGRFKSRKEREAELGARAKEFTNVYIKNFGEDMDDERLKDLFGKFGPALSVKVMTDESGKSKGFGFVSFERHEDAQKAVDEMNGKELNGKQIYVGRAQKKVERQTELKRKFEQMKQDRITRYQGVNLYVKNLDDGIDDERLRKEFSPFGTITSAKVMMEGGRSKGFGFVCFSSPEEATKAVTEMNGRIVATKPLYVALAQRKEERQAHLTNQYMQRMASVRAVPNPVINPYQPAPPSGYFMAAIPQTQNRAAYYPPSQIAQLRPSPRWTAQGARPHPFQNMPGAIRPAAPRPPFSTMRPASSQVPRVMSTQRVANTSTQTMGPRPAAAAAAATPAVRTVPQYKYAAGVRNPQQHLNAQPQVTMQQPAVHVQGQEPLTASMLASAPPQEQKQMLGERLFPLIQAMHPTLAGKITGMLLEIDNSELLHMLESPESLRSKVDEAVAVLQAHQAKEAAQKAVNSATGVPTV
Sequence of Luciferin 4-monooxygenase (P08659 whole entry): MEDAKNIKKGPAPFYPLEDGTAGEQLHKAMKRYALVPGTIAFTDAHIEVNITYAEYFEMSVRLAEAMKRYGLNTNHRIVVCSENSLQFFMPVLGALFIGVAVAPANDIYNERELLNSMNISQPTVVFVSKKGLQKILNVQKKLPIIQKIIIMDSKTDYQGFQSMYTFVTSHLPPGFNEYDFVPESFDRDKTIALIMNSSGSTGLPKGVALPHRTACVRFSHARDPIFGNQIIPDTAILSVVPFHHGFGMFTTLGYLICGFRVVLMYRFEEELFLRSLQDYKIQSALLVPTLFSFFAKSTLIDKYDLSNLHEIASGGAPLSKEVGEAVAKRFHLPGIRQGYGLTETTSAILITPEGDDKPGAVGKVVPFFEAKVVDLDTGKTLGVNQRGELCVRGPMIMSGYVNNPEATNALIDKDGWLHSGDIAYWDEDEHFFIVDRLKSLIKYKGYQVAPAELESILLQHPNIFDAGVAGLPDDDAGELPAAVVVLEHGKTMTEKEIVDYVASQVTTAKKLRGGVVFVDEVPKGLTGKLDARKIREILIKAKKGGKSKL
Sequence of Bifunctional protein GlmU (P9WMN3 whole entry): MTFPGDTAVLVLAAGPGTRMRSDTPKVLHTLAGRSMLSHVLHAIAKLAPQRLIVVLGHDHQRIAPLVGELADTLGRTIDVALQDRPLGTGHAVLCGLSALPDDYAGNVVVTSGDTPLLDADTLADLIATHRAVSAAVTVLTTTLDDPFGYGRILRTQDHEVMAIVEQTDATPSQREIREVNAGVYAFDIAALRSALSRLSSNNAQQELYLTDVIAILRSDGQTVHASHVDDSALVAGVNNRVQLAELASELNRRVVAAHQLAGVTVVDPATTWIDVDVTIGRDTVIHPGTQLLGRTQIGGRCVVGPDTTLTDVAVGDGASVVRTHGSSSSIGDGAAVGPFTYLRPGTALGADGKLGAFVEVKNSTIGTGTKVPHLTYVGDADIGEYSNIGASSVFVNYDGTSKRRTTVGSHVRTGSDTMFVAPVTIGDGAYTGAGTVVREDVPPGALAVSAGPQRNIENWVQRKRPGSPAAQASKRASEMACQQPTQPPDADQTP
Sequence of Cytochrome P450 2C19 (P33261 whole entry): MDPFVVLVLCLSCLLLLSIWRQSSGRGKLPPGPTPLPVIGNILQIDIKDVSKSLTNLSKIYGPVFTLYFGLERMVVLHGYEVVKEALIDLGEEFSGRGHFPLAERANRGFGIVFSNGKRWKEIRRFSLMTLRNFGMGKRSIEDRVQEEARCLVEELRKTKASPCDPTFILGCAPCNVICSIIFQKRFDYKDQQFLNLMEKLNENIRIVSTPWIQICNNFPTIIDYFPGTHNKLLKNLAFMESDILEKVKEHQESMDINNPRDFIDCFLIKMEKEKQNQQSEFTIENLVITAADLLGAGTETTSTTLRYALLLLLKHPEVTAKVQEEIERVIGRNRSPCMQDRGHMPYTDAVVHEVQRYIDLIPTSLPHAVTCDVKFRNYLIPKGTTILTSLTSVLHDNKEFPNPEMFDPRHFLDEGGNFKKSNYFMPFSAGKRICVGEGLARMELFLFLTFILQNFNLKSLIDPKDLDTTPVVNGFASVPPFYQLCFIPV
Sequence of Estrogen receptor beta (Q92731 whole entry): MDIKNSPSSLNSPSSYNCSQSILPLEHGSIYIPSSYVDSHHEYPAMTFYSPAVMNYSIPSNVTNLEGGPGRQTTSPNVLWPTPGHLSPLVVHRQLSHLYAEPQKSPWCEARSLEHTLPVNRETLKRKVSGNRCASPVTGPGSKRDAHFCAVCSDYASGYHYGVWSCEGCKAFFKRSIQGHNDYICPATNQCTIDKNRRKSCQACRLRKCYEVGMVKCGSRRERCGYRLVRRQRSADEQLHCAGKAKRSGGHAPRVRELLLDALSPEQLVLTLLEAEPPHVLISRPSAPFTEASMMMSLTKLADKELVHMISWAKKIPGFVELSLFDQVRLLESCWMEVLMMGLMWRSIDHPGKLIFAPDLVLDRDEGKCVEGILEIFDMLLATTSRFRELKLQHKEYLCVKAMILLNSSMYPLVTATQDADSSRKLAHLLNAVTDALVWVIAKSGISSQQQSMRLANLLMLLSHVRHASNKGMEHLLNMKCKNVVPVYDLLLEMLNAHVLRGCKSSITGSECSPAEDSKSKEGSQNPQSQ
Sequence of Photoreceptor-specific nuclear receptor (Q9Y5X4 whole entry): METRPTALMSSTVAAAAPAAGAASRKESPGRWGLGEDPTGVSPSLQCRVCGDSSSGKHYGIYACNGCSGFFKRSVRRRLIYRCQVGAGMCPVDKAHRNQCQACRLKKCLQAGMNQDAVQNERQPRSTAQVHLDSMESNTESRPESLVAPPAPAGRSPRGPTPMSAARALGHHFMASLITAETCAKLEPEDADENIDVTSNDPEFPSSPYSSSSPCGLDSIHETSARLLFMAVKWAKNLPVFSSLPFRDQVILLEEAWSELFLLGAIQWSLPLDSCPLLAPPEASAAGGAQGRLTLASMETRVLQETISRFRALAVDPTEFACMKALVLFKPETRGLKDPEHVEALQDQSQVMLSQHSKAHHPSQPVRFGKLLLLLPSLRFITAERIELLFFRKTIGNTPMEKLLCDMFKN
Sequence of 14-3-3 protein gamma (P61981 whole entry): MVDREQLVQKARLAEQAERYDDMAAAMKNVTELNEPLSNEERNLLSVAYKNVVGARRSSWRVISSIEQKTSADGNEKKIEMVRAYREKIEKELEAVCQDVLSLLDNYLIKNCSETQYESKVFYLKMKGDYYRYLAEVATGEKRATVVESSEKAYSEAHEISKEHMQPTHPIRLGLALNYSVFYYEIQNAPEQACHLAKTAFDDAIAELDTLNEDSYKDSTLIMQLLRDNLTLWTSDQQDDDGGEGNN

COc1ccccc1NC(=O)c1coc(=O)c(Br)c1
IC50 [1]: 0.658 µM (active)

CS(=O)(=O)c1ccc(-c2cn3cc(C(=O)O)ccc3n2)cc1
AC50 [2]: 1.96 µM (active) | IC50 [1]: 2.5 µM (active)

COc1ccc(-c2cc(-c3cc(C)ccc3O)[nH]n2)cc1
IC50 [3]: 1.83 µM (active)

CCCCN(CC)Cc1ccc(CNC(=O)Nc2ccc(OC)cc2OC)o1
AC50 (Cytochrome P450 2C19): 11.2 µM (inconclusive) | EC50 [4]: > 50 µM (not active)

COc1ccc(N(CC(=O)NC2CCCC2)C(=O)Cn2nnc(-c3ccc(C)cc3)n2)cc1OC
EC50 [4]: > 50 µM (not active)

Cc1cc(=O)oc2c(CN3CCC(C)CC3)c(O)c(Cl)cc12
IC50 (Estrogen receptor): 23.7 µM (active) | EC50 [5]: > 300 µM (not active) | IC50 (14-3-3 protein gamma): 45.6 µM (not active) | IC50 (Estrogen receptor beta): 5.23 µM (not active) | IC50 [6]: > 66 µM (inactive) | IC50 (Aminopeptidase N): 32.7 µM (active) | IC50 [7]: 37.7 µM (inactive) | EC50 [8]: > 300 µM (not active)

COc1ccc(OCc2cc(C(=O)O)c(C)o2)cc1
IC50 [9]: 51.7 µM (active)

Cc1noc(/C=C/c2ccco2)c1S(=O)(=O)N1CCC(C(=O)N2c3ccccc3CC2C)CC1 (stereo not given)
EC50 [10]: 1.66 µM (active) | IC50 (Protein Tat): > 100 µM (active) | EC50 [11]: > 60 µM (not active) | CC50 [12]: 39.7 µM (active)

CC(=O)c1ccc(-c2ccc(C(=O)Nc3nc(C)c(C(C)=O)s3)o2)cc1
IC50 [13]: 9.53 µM (active) | IC50 [14]: 8.01 µM (active)

COc1cccc(C(=O)Nc2nc3ccccc3[nH]2)c1
EC50 [15]: 0.75 µM (active) | AC50 (HEK293): 3.29 µM (active) | EC50 (HT-1080): > 50 µM (not active) | CC50 [12]: > 40 µM (active)

Cc1cccc(-c2ccc([C@@H]3[C@@H]4CN(C(=O)CN(C)C)C[C@H]3N4)cc2)c1
AC50 [16]: 3.46 µM (active) | AC50 [17]: 4.19 µM (active) | AC50 [18]: 32.1 µM (active)

C[C@@H]1CN([C@@H](C)CO)C(=O)c2cccc(NC(=O)c3nc4ccccc4s3)c2O[C@H]1CN(C)C(=O)Nc1ccc(C(F)(F)F)cc1
AC50 [19]: > 100 µM (inactive) | AC50 [16]: 1.06 µM (active) | AC50 [20]: 0.274 µM (active) | AC50 [21]: 0.245 µM (active) | AC50 [22]: 0.323 µM (active)

CCCC(=O)N1CCC2(CC1)CN(S(=O)(=O)c1ccc(C)cc1)[C@@H](CO)c1[nH]c3cc(OC)ccc3c12
AC50 [19]: 77.5 µM (active) | AC50 [16]: < 0.3 µM (active) | AC50 [20]: 0.137 µM (active) | AC50 [17]: 0.182 µM (active) | AC50 [21]: 0.0986 µM (active) | AC50 [22]: 0.115 µM (active)
